Values after ≈ are worked out from the molar mass of the structure shown. Like-named read-outs stand apart in the source and are kept apart here.
Key:
[1] = system: Staphylococcus aureus 209P; experiment: MIC, serial two-fold agar dilution, aerobic bacteria; type: cell-based; conditions: Nutrient agar (Eiken)
[2] = system: Peptococcus aerogenes ATCC 14963; experiment: microbe, parasite or virus in culture; conditions: Peptoniphilus asaccharolyticus, ATCC14963
[3] = system: B. fragilis A20926; experiment: Localized infection with B. fragilis in mice; type: in vivo; conditions: for mean score: control 4.2; for sum of score: control 21; for infectivity level: control 100%
[4] = system: Bacteroides fragilis A20932; experiment: microbe, parasite or virus in culture
[5] = system: Neisseria gonorrhoeae A15112; experiment: MIC, serial two-fold agar dilution, aerobic bacteria; type: cell-based; conditions: GC medium (Eiken)
[6] = system: S. pyogenes A20201; experiment: Systemic infection with S. pyogenes in mice; type: in vivo; conditions: Streptococcus pyogenes, A20201, 120 h, just before challenge, determined after 5 days, read-out: PD50
[7] = system: Staphylococcus aereus Smith; experiment: MIC, serial two-fold agar dilution, aerobic bacteria; type: cell-based; conditions: Nutrient agar (Eiken), read-out: MIC
[8] = system: Serratia marcescens A20019; experiment: as above; type: cell-based
[9] = system: Peptocuccus prevotii ATCC 9321; experiment: microbe, parasite or virus in culture
[10] = system: Bacteroides fragilis A20930; experiment: microbe, parasite or virus in culture
[11] = system: Peptostreptococcus anaerobius B43; type: cell-based; conditions: GAM agar medium (Nissui)
[12] = system: C. perfringens A9635; experiment: microbe, parasite or virus in culture; type: cell-based; conditions: Clostridium perfringens, A9635, 18 h
[13] = system: Bacillus subtilis PCI-219; experiment: MIC, serial two-fold agar dilution, aerobic bacteria; type: cell-based; conditions: PCI219, Nutrient agar (Eiken), read-out: MIC
[14] = system: Klebsiella pneumoniae A9678; experiment: as above; type: cell-based
[15] = system: Hemophilus influenzae A20188; experiment: as above; type: cell-based; conditions: Haemophilus influenzae, GC medium (Eiken)
[16] = system: C. perfringens A9635; experiment: microbe, parasite or virus in culture; type: cell-based, Clostridium perfringens; conditions: inoculum size 7 × 10^6 cell/ml
[17] = system: Neisseria gonorrhoeae A20154; experiment: MIC, serial two-fold agar dilution, aerobic bacteria; type: cell-based; conditions: GC medium (Eiken)
[18] = system: Staphylococcus aureus #52-34; experiment: as above; type: cell-based; conditions: Nutrient agar (Eiken), read-out: MIC
[19] = system: Bacteroides fragilis A20929; experiment: microbe, parasite or virus in culture
[20] = system: C. perfringens A9635; experiment: animal or person; type: in vivo, mice; conditions: Clostridium perfringens, A9635, in Mus musculus, 120 h, read-out: PD50
[21] = system: Fusobacterium mortiferum ATCC 9817; experiment: microbe, parasite or virus in culture; conditions: ATCC9817
[22] = system: Sphaerophorus pseudonecrophorus A20013; experiment: microbe, parasite or virus in culture; conditions: Fusobacterium necrophorum
[23] = system: Proteus mirabilis A9554; experiment: MIC, serial two-fold agar dilution, aerobic bacteria; type: cell-based; conditions: Nutrient agar (Eiken)
[24] = system: C. perfringens or S. pyrogenes; type: in vivo, mice; conditions: mouse, in vivo
[25] = system: Proteus morganii A9553; experiment: MIC, serial two-fold agar dilution, aerobic bacteria; type: cell-based; conditions: Morganella morganii, Nutrient agar (Eiken)
[26] = system: Pseudomonas aeruginosa A9843; experiment: as above; type: cell-based; conditions: test medium not given
[27] = system: Acidoaminococcus fermentans ATCC 25085; experiment: microbe, parasite or virus in culture
[28] = system: S. pyogenes A20201; experiment: Bactericidal activity (MIC & MBC); type: cell-based; conditions: Streptococcus pyogenes, A20201, inoculum size 6 × 10^5 cell/ml
[29] = system: B. fragilis A20928-1; experiment: Bactericidal activity (MIC & MBC); type: cell-based; conditions: Bacteroides fragilis, A209281; inoculum size 2.8 × 10^6 cell/ml; broth
[30] = system: Veillonella parvula ATCC 17745; experiment: microbe, parasite or virus in culture; conditions: ATCC17745
[31] = system: Neisseria meningitidis A20049; experiment: MIC, serial two-fold agar dilution, aerobic bacteria; type: cell-based
[32] = system: Fusobacterium varium ATCC 8501; experiment: microbe, parasite or virus in culture; conditions: ATCC8501
[33] = system: Clostridium caproicum IAM 19228; experiment: microbe, parasite or virus in culture; conditions: IAM19228
[34] = subcutaneous or oral
[35] = in vivo; conditions: mouse

CCC[C@@H]1C[C@@H](C(=O)N[C@@H]([C@H]2O[C@H](SC)[C@H](O)[C@@H](O)[C@H]2O)[C@H](C)Cl)N(C)C1 [Clindamycin]
MIC [1]: 0.1 µg/mL (≈ 0.235 µM) | MIC [2]: 0.2 µg/mL (≈ 0.471 µM) | comparative in vivo activity ([3]; B. fragilis localized infection): more active than Bu-2313B or Flagyl | mean score ([3]; oral, 6.3 × 5 mg/kg): 2.6 | sum of score ([3]; oral, 6.3 × 5 mg/kg): 13 | infectivity level ([3]; oral, 6.3 × 5 mg/kg): 61.9% | mean score ([3]; oral, 25 × 5 mg/kg): 1.8 | sum of score ([3]; oral, 25 × 5 mg/kg): 9 | infectivity level ([3]; oral, 25 × 5 mg/kg): 42.9% | sum of score ([3]; oral, 100 × 5 mg/kg): 2 | infectivity level ([3]; oral, 100 × 5 mg/kg): 9.5% | mean score ([3]; oral, […] 5 mg/kg): 4.0 | sum of score ([3]; oral, […] 5 mg/kg): 20 | infectivity level ([3]; oral, […] 5 mg/kg): 95.2% | mean score ([3]; subcutaneous, 0.8 × 5 mg/kg): 4.0 | sum of score ([3]; subcutaneous, 0.8 × 5 mg/kg): 20 | infectivity level ([3]; subcutaneous, 0.8 × 5 mg/kg): 95.2% | mean score ([3]; subcutaneous, 3.1 × 5 mg/kg): 2.0 | sum of score ([3]; subcutaneous, 3.1 × 5 mg/kg): 10 | infectivity level ([3]; subcutaneous, 3.1 × 5 mg/kg): 47.6% | mean score ([3]; subcutaneous, 50 × 5 mg/kg): 0.8 | sum of score ([3]; subcutaneous, 50 × 5 mg/kg): 4 | infectivity level ([3]; subcutaneous, 50 × 5 mg/kg): 19.0% | mean score ([3]; subcutaneous, […] 5 mg/kg): 1.4 | sum of score ([3]; subcutaneous, […] 5 mg/kg): 7 | infectivity level ([3]; subcutaneous, […] 5 mg/kg): 33.3% | MIC [4]: 0.05 µg/mL (≈ 0.118 µM) | MIC [5]: 0.2 µg/mL (≈ 0.471 µM) | ED50 ([6]; po, NA: no activity): 2.1 mg/kg | ED50 ([6]; sc): 0.3 mg/kg | MIC [7]: 0.1 µg/mL (≈ 0.235 µM) | MIC [8]: 50 µg/mL (≈ 118 µM) | MIC [9]: 0.1 µg/mL (≈ 0.235 µM) | MIC [10]: 0.05 µg/mL (≈ 0.118 µM) | MIC [11]: 0.8 µg/mL (≈ 1.88 µM) | MBC [12]: 0.05 µg/mL (≈ 0.118 µM) | MIC [13]: 0.8 µg/mL (≈ 1.88 µM) | MIC [14]: 100 µg/mL (≈ 235 µM) | MIC [15]: 0.8 µg/mL (≈ 1.88 µM) | MIC in GAM agar [16]: 0.0125 µg/mL (≈ 0.0294 µM) | MIC [17]: 0.2 µg/mL (≈ 0.471 µM) | MIC [18]: 0.1 µg/mL (≈ 0.235 µM) | MIC [19]: 0.05 µg/mL (≈ 0.118 µM) | ED50 ([20]; po): 0.22 mg/kg | ED50 ([20]; sc): 0.08 mg/kg | MIC [21]: 0.05 µg/mL (≈ 0.118 µM) | MIC [22]: 0.05 µg/mL (≈ 0.118 µM) | MIC [23]: 100 µg/mL (≈ 235 µM) | comparative in vivo activity [24]: the most active | MIC [25]: 100 µg/mL (≈ 235 µM) | MIC [26]: > 100 µg/mL | MIC [27]: 0.05 µg/mL (≈ 0.118 µM) | MIC ([28]; broth): 0.05 µg/mL (≈ 0.118 µM) | MBC ([28]; growth of less than 100 colonies per plate, 18 hours at 37° C., read-out: MBC): 6.3 µg/mL (≈ 14.8 µM) | MIC [29]: 0.05 µg/mL (≈ 0.118 µM) | MIC [30]: 0.05 µg/mL (≈ 0.118 µM) | MIC [31]: 0.05 µg/mL (≈ 0.118 µM) | MIC [32]: 0.05 µg/mL (≈ 0.118 µM) | MIC [33]: 0.1 µg/mL (≈ 0.235 µM)

Cc1ncc([N+](=O)[O-])n1CCO [Flagyl]
absorption compared with Bu-2313B [34]: better absorptions than Bu-2313B | mean score ([3]; oral, 6.3 × 5 mg/kg): 3.4 | sum of score ([3]; oral, 6.3 × 5 mg/kg): 17 | infectivity level ([3]; oral, 6.3 × 5 mg/kg): 81.0% | mean score ([3]; oral, 25 × 5 mg/kg): 2.6 | sum of score ([3]; oral, 25 × 5 mg/kg): 13 | infectivity level ([3]; oral, 25 × 5 mg/kg): 61.9% | mean score ([3]; oral, 100 × 5 mg/kg): 1.6 | sum of score ([3]; oral, 100 × 5 mg/kg): 8 | infectivity level ([3]; oral, 100 × 5 mg/kg): 38.1% | mean score ([3]; oral, […] 5 mg/kg): 4.0 | sum of score ([3]; oral, […] 5 mg/kg): 20 | infectivity level ([3]; oral, […] 5 mg/kg): 95.2% | mean score ([3]; subcutaneous, 0.8 × 5 mg/kg): 4.0 | sum of score ([3]; subcutaneous, 0.8 × 5 mg/kg): 20 | infectivity level ([3]; subcutaneous, 0.8 × 5 mg/kg): 95.2% | mean score ([3]; subcutaneous, 3.1 × 5 mg/kg): 3.4 | sum of score ([3]; subcutaneous, 3.1 × 5 mg/kg): 17 | infectivity level ([3]; subcutaneous, 3.1 × 5 mg/kg): 81.0% | mean score ([3]; subcutaneous, 50 × 5 mg/kg): 2.0 | sum of score ([3]; subcutaneous, 50 × 5 mg/kg): 10 | infectivity level ([3]; subcutaneous, 50 × 5 mg/kg): 47.6% | mean score ([3]; subcutaneous, […] 5 mg/kg): 2.4 | sum of score ([3]; subcutaneous, […] 5 mg/kg): 12 | infectivity level ([3]; subcutaneous, […] 5 mg/kg): 57.1% | concentration at 0.5 h ([35]; po, 25 mg/kg): 8800 ng/mL | concentration at 1 h ([35]; po, 25 mg/kg): 6700 ng/mL | concentration at 3 h ([35]; po, 25 mg/kg): 6100 ng/mL | concentration at 0.5 h ([35]; po, 50 mg/kg): 20000 ng/mL | concentration at 1 h ([35]; po, 50 mg/kg): 15000 ng/mL | concentration at 3 h ([35]; po, 50 mg/kg): 11000 ng/mL | concentration at 0.5 h ([35]; po, 100 mg/kg): 56000 ng/mL | concentration at 1 h ([35]; po, 100 mg/kg): 41000 ng/mL | concentration at 3 h ([35]; po, 100 mg/kg): 24000 ng/mL | concentration at 5 h ([35]; po, 100 mg/kg): 13000 ng/mL | concentration at 0.5 h ([35]; sc, 25 mg/kg): 15000 ng/mL | concentration at 1 h ([35]; sc, 25 mg/kg): 12000 ng/mL | concentration at 2 h ([35]; sc, 25 mg/kg): 8300 ng/mL | concentration at 0.5 h ([35]; sc, 50 mg/kg): 32000 ng/mL | concentration at 1 h ([35]; sc, 50 mg/kg): 26000 ng/mL | concentration at 2 h ([35]; sc, 50 mg/kg): 12000 ng/mL | concentration at 0.5 h ([35]; sc, 100 mg/kg): 121000 ng/mL | concentration at 1 h ([35]; sc, 100 mg/kg): 98000 ng/mL | concentration at 2 h ([35]; sc, 100 mg/kg): 40000 ng/mL | ED50 ([20]; po): 60 mg/kg | ED50 ([20]; sc): 31 mg/kg
